Values of other authors as cited in patent publication US20060080073A1, “Three-dimensional structural activity correlation method” (priority 2002, published 2006).

Target: T1, human corticosteroid-binding globulin (Homo sapiens, UniProt P08185)
T1 sequence (P08185 23-405): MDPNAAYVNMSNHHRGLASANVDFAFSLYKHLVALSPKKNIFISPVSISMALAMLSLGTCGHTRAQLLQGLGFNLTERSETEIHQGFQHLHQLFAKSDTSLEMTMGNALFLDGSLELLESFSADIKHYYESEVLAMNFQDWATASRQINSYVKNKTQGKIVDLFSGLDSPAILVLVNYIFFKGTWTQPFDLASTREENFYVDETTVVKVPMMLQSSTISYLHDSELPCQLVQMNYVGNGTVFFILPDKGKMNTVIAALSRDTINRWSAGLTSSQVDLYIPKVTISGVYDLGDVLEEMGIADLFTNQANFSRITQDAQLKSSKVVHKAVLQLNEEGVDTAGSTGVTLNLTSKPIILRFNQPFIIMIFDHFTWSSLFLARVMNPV
Details: steroid derivatives disclosed by Cramer et al. (CoMFA benchmark); values given as negative logarithmic numbers, no unit

SMILES	Binding affinity to human corticosteroid-binding globulins (CBG)
C[C@]12CC[C@H]3[C@@H](CCC4=CC(=O)CC[C@@]43C)[C@@H]1CC[C@@H]2C(=O)CO [deoxycorticosterone]	−7.653
C[C@]12CCC(=O)C[C@@H]1CC[C@@H]1[C@@H]2CC[C@]2(C)[C@@H](O)CC[C@@H]12 [dihydrotestosterone]	−5.919
C[C@]12C[C@H](O)[C@H]3[C@@H](CCC4=CC(=O)CC[C@@]43C)[C@@H]1CC[C@@H]2C(=O)CO [corticosterone]	−7.881
C[C@]12CC[C@H](O)CC1=CC[C@@H]1[C@@H]2CC[C@]2(C)C(=O)CC[C@@H]12 [dehydroepiandrosterone]	−5.000
C[C@]12CC[C@@H](O)C[C@@H]1CC[C@@H]1[C@@H]2CC[C@]2(C)C(=O)CC[C@@H]12 [androsterone]	−5.613
CC(=O)[C@H]1CC[C@H]2[C@@H]3CCC4=CC(=O)CC[C@]4(C)[C@H]3CC[C@]12C [progesterone]	−7.380
C[C@]12CCC(=O)C=C1CC[C@@H]1[C@@H]2[C@@H](O)C[C@]2(C=O)[C@@H](C(=O)CO)CC[C@@H]12 [aldosterone]	−6.279
C[C@]12CC[C@H]3[C@@H](CCC4=CC(=O)CC[C@@]43C)[C@@H]1CC[C@@H]2O [teststerone]	−6.724
CC(=O)[C@@]1(O)CC[C@H]2[C@@H]3CCC4=CC(=O)CC[C@]4(C)[C@H]3CC[C@@]21C [hydroxy progesterone]	−7.740
C[C@]12CCC(=O)C=C1CC[C@@H]1[C@@H]2CC[C@]2(C)C(=O)CC[C@@H]12 [androstenedione]	−5.763
C[C@]12CC[C@@H](O)C[C@H]1CC[C@@H]1[C@@H]2CC[C@]2(C)C(=O)CC[C@@H]12 [etiocholanolone]	−5.255
C[C@]12CCC(=O)C=C1CC[C@@H]1[C@@H]2[C@@H](O)C[C@@]2(C)[C@H]1CC[C@]2(O)C(=O)CO [cortisol]	−7.881
C[C@]12CCC(=O)C=C1CC[C@@H]1[C@@H]2CC[C@@]2(C)[C@H]1CC[C@]2(O)C(=O)CO [deoxycortisole]	−7.881
C[C@]12CCC(O)CC1CC[C@@H]1[C@@H]2CC[C@]2(C)C(O)CC[C@@H]12 (stereo partly drawn) [androstandiol]	−5.000
C[C@]12CCC(=O)C=C1CC[C@@H]1[C@@H]2C(=O)C[C@@]2(C)[C@H]1CC[C@]2(O)C(=O)CO [cortisone]	−6.892
C[C@]12CC[C@@H]3c4ccc(O)cc4CC[C@H]3[C@@H]1C[C@@H](O)[C@@H]2O [estriol]	−5.000
CC(=O)[C@@]1(O)CC[C@H]2[C@@H]3CC[C@@H]4C[C@H](O)CC[C@]4(C)[C@H]3CC[C@@]21C [hydroxy pregnenolone]	−5.000
CC(=O)[C@H]1CC[C@H]2[C@@H]3CC=C4C[C@@H](O)CC[C@]4(C)[C@H]3CC[C@]12C [pregnenolone]	−5.255
